≈ marks a conversion by molar mass, not a printed value.
Columns and labels:
physchem = details: water
[1] = Solubility of apolar solutes in aqueous cyclomalto-oligosaccharide solutions (inclusion complexes); assay type: physicochemical
Solubility in water = details: in words, compared with cyclomaltoheptaose (CG₇)
[2] = Apparent stability constant of inclusion complexes; details: in words, complexes with the new derivatives compared with the corresponding cyclomaltoheptaose (CG₇) complexes

| solubility (physchem) | Compound | solubilité dans l'eau (Solubility in water) | constantes de stabilité apparente des complexes [2] | further results |
| --- | --- | --- | --- | --- |
| 0.012 mg/mL (≈ 0.039 mM) | Cc1cccc(N(C)C(=S)Oc2ccc3ccccc3c2)c1 [Tolnaftate, O-2-Naphtyl-méthyl-(3-méthylphényl)-carbomothioate] | – | – | Solubilité ([1]; Solution aqueuse à 1,7.10^-2 mol/l de CG7): 840 µg/mL; Solubilité ([1]; Solution aqueuse à 3,10^-2mol/l de composé n°1): 52 690 µg/ml; Solubilité ([1]; Solution aqueuse à 3,10^-2 mol/l de composé n° 2): 37 090 µg/ml |
| 430 mg/mL (≈ 327 mM) | OC[C@H]1O[C@H](SC[C@H]2O[C@@H]3O[C@H]4[C@H](O)[C@@H](O)[C@@H](O[C@H]5[C@H](O)[C@@H](O)[C@@H](O[C@H]6[C@H](O)[C@@H](O)[C@@H](O[C@H]7[C@H](O)[C@@H](O)[C@@H](O[C@H]8[C@H](O)[C@@H](O)[C@@H](O[C@H]9[C@H](O)[C@@H](O)[C@@H](O[C@H]2[C@H](O)[C@H]3O)O[C@@H]9CO)O[C@@H]8CO)O[C@@H]7CO)O[C@@H]6CO)O[C@@H]5CO)O[C@@H]4CO)[C@H](O)[C@@H](O)[C@@H]1O [Composé 1, 6-S-alpha-D-glucopyranosyl-6-thio-cyclomaltoheptaose] | améliorée par rapport à celle du CG₇ | – | – |
| – | Oc1ccc2ccccc2c1 [2-naphtol] | – | ne sont pas notablement modifiées | – |
| 30 mg/mL (≈ 22.8 mM) | OC[C@H]1O[C@@H](SC[C@H]2O[C@@H]3O[C@H]4[C@H](O)[C@@H](O)[C@@H](O[C@H]5[C@H](O)[C@@H](O)[C@@H](O[C@H]6[C@H](O)[C@@H](O)[C@@H](O[C@H]7[C@H](O)[C@@H](O)[C@@H](O[C@H]8[C@H](O)[C@@H](O)[C@@H](O[C@H]9[C@H](O)[C@@H](O)[C@@H](O[C@H]2[C@H](O)[C@H]3O)O[C@@H]9CO)O[C@@H]8CO)O[C@@H]7CO)O[C@@H]6CO)O[C@@H]5CO)O[C@@H]4CO)[C@H](O)[C@@H](O)[C@@H]1O [Composé 2, 6-S-bêta-D-glucopyranosyl-6-thio-cyclomaltoheptaose] | très améliorée par rapport à celle du cyclomaltoheptaose | – | – |
| – | C[C@]12CCC(=O)C=C1CC[C@@H]1[C@@H]2[C@@H](O)C[C@@]2(C)[C@H]1CC[C@]2(O)C(=O)CO [Hydrocortisone] | – | ne sont pas notablement modifiées | – |

Reference: patent EP0403366A2, “Cyclomalto-oligosaccharide derivatives and processes for their preparation” (priority 1989, dated 1990)
